Results: PubChem BioAssay AID686982

What was measured:
[1] = Plasmodium hepatic-stage parasite load reduction – cell-based, HepG2, luciferase, host viability, known kinase inhibitors, confirmation (AID 686982); settings: P. berghei liver stage in HepG2, luciferase, 48 h; measured here: HepG2 viability, % of control; at 10 µM; stronger effect = lower value
[2] = system: P. berghei liver stage in HepG2, luciferase, 48 h; assay: as above; settings: at 10 µM; stronger effect = lower value

`COc1cc[nH]c1C=C1C(=O)Nc2ccc(F)c(C#CC3(O)CCOCC3)c21` showed a viability [1] of 111% and a parasite load, % of control [2] of 1.05%.
For `Cc1ccc2c(-c3ccnc(Nc4ccccc4)n3)c(-c3ccc(F)cc3)nn2n1`, the viability [1] was 206% and the parasite load, % of control [2] was 1.15%.
With `Fc1ccc(-c2c(-c3ccncc3)[nH]c3cccnc23)cc1` the viability [1] was 163% and the parasite load, % of control [2] was 1.19%.
